Experimental data: PubChem BioAssay (NCI)
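These data come from cells grown in 96-well plates and exposed to compound for 48 hours at five concentrations. GI50 marks 50% less growth. TGI denotes the concentration required for complete inhibition of growth.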

Legend:
Assay in all cases: NCI anticancer screen, dose series, 48 h
A498 renal = tested on: A498 renal
A549 NSCLC = tested on: A549 NSCLC
ACHN renal = tested on: ACHN renal
CAKI-1 renal = tested on: CAKI-1 renal
CCRF-CEM leukemia = tested on: CCRF-CEM leukemia
COLO 205 colon = tested on: COLO 205 colon
DU-145 prostate = tested on: DU-145 prostate
EKVX NSCLC = tested on: EKVX NSCLC
HCC-2998 colon = tested on: HCC-2998 colon
HCT-116 colon = tested on: HCT-116 colon
HCT-15 colon = tested on: HCT-15 colon
HL-60(TB) leukemia = tested on: HL-60(TB) leukemia
HOP-62 NSCLC = tested on: HOP-62 NSCLC
HOP-92 NSCLC = tested on: HOP-92 NSCLC
HS 578T breast = tested on: HS 578T breast
HT29 colon = tested on: HT29 colon
IGROV1 ovarian = tested on: IGROV1 ovarian
K-562 leukemia = tested on: K-562 leukemia
KM12 colon = tested on: KM12 colon
LOX IMVI melanoma = tested on: LOX IMVI melanoma
M14 melanoma = tested on: M14 melanoma
MALME-3M melanoma = tested on: MALME-3M melanoma
MCF7 breast = tested on: MCF7 breast
MDA-MB-231 breast = tested on: MDA-MB-231 breast
MDA-MB-435 = tested on: MDA-MB-435
MDA-MB-468 breast = tested on: MDA-MB-468 breast
MOLT-4 leukemia = tested on: MOLT-4 leukemia
NCI-H226 lung = tested on: NCI-H226 lung
NCI-H23 lung = tested on: NCI-H23 lung
NCI-H460 lung = tested on: NCI-H460 lung
NCI-H522 lung = tested on: NCI-H522 lung
NCI/ADR-RES ovarian = tested on: NCI/ADR-RES ovarian
OVCAR-3 ovarian = tested on: OVCAR-3 ovarian
OVCAR-4 ovarian = tested on: OVCAR-4 ovarian
OVCAR-5 ovarian = tested on: OVCAR-5 ovarian
OVCAR-8 ovarian = tested on: OVCAR-8 ovarian
PC-3 prostate = tested on: PC-3 prostate
RPMI-8226 leukemia = tested on: RPMI-8226 leukemia
RXF 393 renal = tested on: RXF 393 renal
SF-268 CNS = tested on: SF-268 CNS
SF-295 CNS = tested on: SF-295 CNS
SF-539 CNS = tested on: SF-539 CNS
SK-MEL-2 melanoma = tested on: SK-MEL-2 melanoma
SK-MEL-28 melanoma = tested on: SK-MEL-28 melanoma
SK-MEL-5 melanoma = tested on: SK-MEL-5 melanoma
SK-OV-3 ovarian = tested on: SK-OV-3 ovarian
SN12C renal = tested on: SN12C renal
SNB-19 CNS = tested on: SNB-19 CNS
SNB-75 CNS = tested on: SNB-75 CNS
SR leukemia = tested on: SR leukemia
SW-620 colon = tested on: SW-620 colon
T-47D breast = tested on: T-47D breast
TK-10 renal = tested on: TK-10 renal
U251 CNS = tested on: U251 CNS
UACC-257 melanoma = tested on: UACC-257 melanoma
UACC-62 melanoma = tested on: UACC-62 melanoma
UO-31 renal = tested on: UO-31 renal

## COc1ccc(-c2nc3ccc(-c4nnc(SCC(=O)Nc5ccc(/C(C)=N\O)cc5)o4)cc3[nH]2)cc1
A498 renal
  GI50: 22.7 µM
  TGI: 37.2 µM
A549 NSCLC
  GI50: 14.1 µM
  TGI: 35.6 µM
ACHN renal
  GI50: 13 µM
  TGI: 35.2 µM
CAKI-1 renal
  GI50: 5.93 µM
  TGI: 25 µM
CCRF-CEM leukemia
  GI50: 7.22 µM
  TGI: > 100 µM
COLO 205 colon
  GI50: 26.2 µM
  TGI: > 100 µM
DU-145 prostate
  GI50: 14.8 µM
  TGI: 31.8 µM
EKVX NSCLC
  GI50: 17.1 µM
  TGI: 48.8 µM
HCC-2998 colon
  GI50: 50.8 µM
  TGI: > 100 µM
HCT-116 colon
  GI50: 3.31 µM
  TGI: > 100 µM
HCT-15 colon
  GI50: > 100 µM
  TGI: > 100 µM
HL-60(TB) leukemia
  GI50: 19.5 µM
  TGI: > 100 µM
HOP-62 NSCLC
  GI50: 22.9 µM
  TGI: > 100 µM
HOP-92 NSCLC
  GI50: 4.14 µM
  TGI: 19.7 µM
HS 578T breast
  GI50: 2.75 µM
  TGI: 8.15 µM
HT29 colon
  GI50: 13.8 µM
  TGI: 35.6 µM
IGROV1 ovarian
  GI50: 12 µM
  TGI: 24.3 µM
K-562 leukemia
  GI50: 3.68 µM
  TGI: > 100 µM
KM12 colon
  GI50: 10.8 µM
  TGI: > 100 µM
LOX IMVI melanoma
  GI50: 5.69 µM
  TGI: 19.4 µM
M14 melanoma
  GI50: 3.05 µM
  TGI: > 100 µM
MALME-3M melanoma
  GI50: 1.69 µM
  TGI: 3.95 µM
MCF7 breast
  GI50: 8.61 µM
  TGI: 30.9 µM
MDA-MB-231 breast
  GI50: 3.83 µM
  TGI: 13.4 µM
MDA-MB-435
  GI50: 4 µM
  TGI: 18.1 µM
MDA-MB-468 breast
  GI50: 6.35 µM
  TGI: 19.3 µM
MOLT-4 leukemia
  GI50: 9.01 µM
  TGI: > 100 µM
NCI-H226 lung
  GI50: 11.7 µM
  TGI: 33.2 µM
NCI-H23 lung
  GI50: 11 µM
  TGI: 33.9 µM
NCI-H460 lung
  GI50: 15 µM
  TGI: 53 µM
NCI-H522 lung
  GI50: 6.37 µM
  TGI: 23 µM
NCI/ADR-RES ovarian
  GI50: > 100 µM
  TGI: > 100 µM
OVCAR-3 ovarian
  GI50: 12.7 µM
  TGI: 38.1 µM
OVCAR-4 ovarian
  GI50: 20.9 µM
  TGI: 91.7 µM
OVCAR-5 ovarian
  GI50: 19.9 µM
  TGI: 41 µM
OVCAR-8 ovarian
  GI50: 7.7 µM
  TGI: 44.6 µM
PC-3 prostate
  GI50: 3.05 µM
  TGI: 10.8 µM
RPMI-8226 leukemia
  GI50: 4 µM
  TGI: > 100 µM
RXF 393 renal
  GI50: 2.03 µM
  TGI: 5.18 µM
SF-268 CNS
  GI50: 4.38 µM
  TGI: 23.1 µM
SF-295 CNS
  GI50: 14.2 µM
  TGI: 32.8 µM
SF-539 CNS
  GI50: 2.15 µM
  TGI: 6.35 µM
SK-MEL-2 melanoma
  GI50: 5.27 µM
  TGI: 17.8 µM
SK-MEL-28 melanoma
  GI50: 2.05 µM
  TGI: 4.03 µM
SK-MEL-5 melanoma
  GI50: 1.68 µM
  TGI: 3.66 µM
SK-OV-3 ovarian
  GI50: 12.2 µM
  TGI: 28.8 µM
SN12C renal
  GI50: 11.6 µM
  TGI: 28 µM
SNB-19 CNS
  GI50: 13.1 µM
  TGI: 28.3 µM
SNB-75 CNS
  GI50: 2.8 µM
  TGI: 14.9 µM
SR leukemia
  GI50: > 100 µM
  TGI: > 100 µM
SW-620 colon
  GI50: 26.1 µM
  TGI: 87.6 µM
T-47D breast
  GI50: 10 µM
  TGI: 34.8 µM
TK-10 renal
  GI50: 19.8 µM
  TGI: 37.5 µM
U251 CNS
  GI50: 4.3 µM
  TGI: 20.4 µM
UACC-257 melanoma
  GI50: 4.31 µM
  TGI: 17.2 µM
UACC-62 melanoma
  GI50: 3.2 µM
  TGI: 12 µM
UO-31 renal
  GI50: 33.5 µM
  TGI: > 100 µM
